#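 96-well plates; 48 h exposure; 5 concentrations. Endpoints by linear interpolation between flanking doses. Not reached: highest tested concentration assigned. At the GI50, growth is halved. The concentration for full growth arrest is given as TGI.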
# Key:
# Assay in all cases: NCI-60 cell line screen, 48 h
# SN12C renal = test system: SN12C renal
# HL-60(TB) leukemia = test system: HL-60(TB) leukemia
# ACHN renal = test system: ACHN renal
# A498 renal = test system: A498 renal
# NCI-H522 lung = test system: NCI-H522 lung
# HOP-62 NSCLC = test system: HOP-62 NSCLC
# RXF 393 renal = test system: RXF 393 renal
# U251 CNS = test system: U251 CNS
# NCI-H460 lung = test system: NCI-H460 lung
# MDA-MB-231 breast = test system: MDA-MB-231 breast
# TK-10 renal = test system: TK-10 renal
# SW-620 colon = test system: SW-620 colon
# SK-MEL-28 melanoma = test system: SK-MEL-28 melanoma
# MOLT-4 leukemia = test system: MOLT-4 leukemia
# MCF7 breast = test system: MCF7 breast
# HOP-92 NSCLC = test system: HOP-92 NSCLC
# MALME-3M melanoma = test system: MALME-3M melanoma
# T-47D breast = test system: T-47D breast
# SF-539 CNS = test system: SF-539 CNS
# SF-295 CNS = test system: SF-295 CNS
# SK-MEL-5 melanoma = test system: SK-MEL-5 melanoma
# CCRF-CEM leukemia = test system: CCRF-CEM leukemia
# OVCAR-4 ovarian = test system: OVCAR-4 ovarian
# A549 NSCLC = test system: A549 NSCLC
# MDA-MB-435 = test system: MDA-MB-435
# HT29 colon = test system: HT29 colon
# COLO 205 colon = test system: COLO 205 colon
# NCI-H23 lung = test system: NCI-H23 lung
# KM12 colon = test system: KM12 colon
# BT-549 breast = test system: BT-549 breast
# SNB-19 CNS = test system: SNB-19 CNS
# EKVX NSCLC = test system: EKVX NSCLC
# IGROV1 ovarian = test system: IGROV1 ovarian
# HCC-2998 colon = test system: HCC-2998 colon
# PC-3 prostate = test system: PC-3 prostate
# DU-145 prostate = test system: DU-145 prostate
# NCI-H226 lung = test system: NCI-H226 lung
# OVCAR-8 ovarian = test system: OVCAR-8 ovarian
# LOX IMVI melanoma = test system: LOX IMVI melanoma
# HCT-116 colon = test system: HCT-116 colon
# HS 578T breast = test system: HS 578T breast
# UACC-62 melanoma = test system: UACC-62 melanoma
# OVCAR-5 ovarian = test system: OVCAR-5 ovarian
# SF-268 CNS = test system: SF-268 CNS
# SK-OV-3 ovarian = test system: SK-OV-3 ovarian
# OVCAR-3 ovarian = test system: OVCAR-3 ovarian
# SK-MEL-2 melanoma = test system: SK-MEL-2 melanoma
# K-562 leukemia = test system: K-562 leukemia
# SNB-75 CNS = test system: SNB-75 CNS
# UO-31 renal = test system: UO-31 renal
# CAKI-1 renal = test system: CAKI-1 renal
# M14 melanoma = test system: M14 melanoma
# SR leukemia = test system: SR leukemia
# 786-0 renal = test system: 786-0 renal
# UACC-257 melanoma = test system: UACC-257 melanoma
# RPMI-8226 leukemia = test system: RPMI-8226 leukemia
# HCT-15 colon = test system: HCT-15 colon
# NCI/ADR-RES ovarian = test system: NCI/ADR-RES ovarian
smiles,measurement,setting,value
c1ccc(Cn2cc3c(c2)-c2oncc2CC3)cc1,GI50,SN12C renal,2260 nM
same,TGI,SN12C renal,> 100000 nM
same,GI50,HL-60(TB) leukemia,274 nM
same,TGI,HL-60(TB) leukemia,939 nM
same,GI50,ACHN renal,7740 nM
same,TGI,ACHN renal,> 100000 nM
same,GI50,A498 renal,3430 nM
same,TGI,A498 renal,> 92100 nM
same,GI50,NCI-H522 lung,1890 nM
same,TGI,NCI-H522 lung,8130 nM
same,GI50,HOP-62 NSCLC,1280 nM
same,TGI,HOP-62 NSCLC,> 59400 nM
same,GI50,RXF 393 renal,1120 nM
same,TGI,RXF 393 renal,4760 nM
same,GI50,U251 CNS,552 nM
same,TGI,U251 CNS,33000 nM
same,GI50,NCI-H460 lung,402 nM
same,TGI,NCI-H460 lung,7500 nM
same,GI50,MDA-MB-231 breast,1360 nM
same,TGI,MDA-MB-231 breast,51900 nM
same,GI50,TK-10 renal,2980 nM
same,TGI,TK-10 renal,> 71500 nM
same,GI50,SW-620 colon,428 nM
same,TGI,SW-620 colon,> 100000 nM
same,GI50,SK-MEL-28 melanoma,4270 nM
same,TGI,SK-MEL-28 melanoma,> 100000 nM
same,GI50,MOLT-4 leukemia,394 nM
same,GI50,MCF7 breast,349 nM
same,TGI,MCF7 breast,> 100000 nM
same,GI50,HOP-92 NSCLC,7640 nM
same,TGI,HOP-92 NSCLC,> 91400 nM
same,GI50,MALME-3M melanoma,17900 nM
same,TGI,MALME-3M melanoma,> 67800 nM
same,GI50,T-47D breast,2250 nM
same,TGI,T-47D breast,> 100000 nM
same,GI50,SF-539 CNS,461 nM
same,TGI,SF-539 CNS,2900 nM
same,GI50,SF-295 CNS,818 nM
same,TGI,SF-295 CNS,> 20600 nM
same,GI50,SK-MEL-5 melanoma,348 nM
same,TGI,SK-MEL-5 melanoma,11800 nM
same,GI50,CCRF-CEM leukemia,348 nM
same,GI50,OVCAR-4 ovarian,3260 nM
same,TGI,OVCAR-4 ovarian,> 66900 nM
same,GI50,A549 NSCLC,1480 nM
same,TGI,A549 NSCLC,97700 nM
same,GI50,MDA-MB-435,311 nM
same,TGI,MDA-MB-435,> 100000 nM
same,GI50,HT29 colon,398 nM
same,TGI,HT29 colon,13600 nM
same,GI50,COLO 205 colon,467 nM
same,TGI,COLO 205 colon,2550 nM
same,GI50,NCI-H23 lung,1770 nM
same,TGI,NCI-H23 lung,> 100000 nM
same,GI50,KM12 colon,521 nM
same,TGI,KM12 colon,9200 nM
same,GI50,BT-549 breast,4310 nM
same,TGI,BT-549 breast,98200 nM
same,GI50,SNB-19 CNS,1270 nM
same,TGI,SNB-19 CNS,> 100000 nM
same,GI50,EKVX NSCLC,2740 nM
same,TGI,EKVX NSCLC,> 100000 nM
same,GI50,IGROV1 ovarian,1270 nM
same,TGI,IGROV1 ovarian,> 100000 nM
same,GI50,HCC-2998 colon,1250 nM
same,TGI,HCC-2998 colon,4760 nM
same,GI50,PC-3 prostate,1990 nM
same,TGI,PC-3 prostate,> 100000 nM
same,GI50,DU-145 prostate,977 nM
same,TGI,DU-145 prostate,12800 nM
same,GI50,NCI-H226 lung,5910 nM
same,TGI,NCI-H226 lung,99100 nM
same,GI50,OVCAR-8 ovarian,2790 nM
same,TGI,OVCAR-8 ovarian,> 39100 nM
same,GI50,LOX IMVI melanoma,1660 nM
same,TGI,LOX IMVI melanoma,> 57900 nM
same,GI50,HCT-116 colon,408 nM
same,TGI,HCT-116 colon,> 100000 nM
same,GI50,HS 578T breast,887 nM
same,TGI,HS 578T breast,10700 nM
same,GI50,UACC-62 melanoma,723 nM
same,TGI,UACC-62 melanoma,97300 nM
same,GI50,OVCAR-5 ovarian,2300 nM
same,TGI,OVCAR-5 ovarian,> 92400 nM
same,GI50,SF-268 CNS,1780 nM
same,TGI,SF-268 CNS,38900 nM
same,GI50,SK-OV-3 ovarian,767 nM
same,TGI,SK-OV-3 ovarian,26500 nM
same,GI50,OVCAR-3 ovarian,457 nM
same,TGI,OVCAR-3 ovarian,2210 nM
same,GI50,SK-MEL-2 melanoma,5290 nM
same,TGI,SK-MEL-2 melanoma,87500 nM
same,GI50,K-562 leukemia,387 nM
same,TGI,K-562 leukemia,> 100000 nM
same,GI50,SNB-75 CNS,1110 nM
same,TGI,SNB-75 CNS,27000 nM
same,GI50,UO-31 renal,4230 nM
same,TGI,UO-31 renal,97100 nM
same,GI50,CAKI-1 renal,1970 nM
same,TGI,CAKI-1 renal,> 76300 nM
same,GI50,M14 melanoma,528 nM
same,TGI,M14 melanoma,> 100000 nM
same,GI50,SR leukemia,310 nM
same,TGI,SR leukemia,4340 nM
same,GI50,786-0 renal,1860 nM
same,TGI,786-0 renal,> 30800 nM
same,GI50,UACC-257 melanoma,22700 nM
same,TGI,UACC-257 melanoma,98500 nM
same,GI50,RPMI-8226 leukemia,285 nM
same,TGI,RPMI-8226 leukemia,2380 nM
same,GI50,HCT-15 colon,863 nM
same,TGI,HCT-15 colon,> 100000 nM
same,GI50,NCI/ADR-RES ovarian,554 nM
same,TGI,NCI/ADR-RES ovarian,7220 nM
